# Reference: US10654866B2, “Selective estrogen receptor degraders” (Eli Lilly and Company, priority 2018, dated 2020)
# How the values were obtained:
# ERα (Y537S mutant) = ERα (Y537S mutant) (Homo sapiens (Human), UniProt P03372, Y537S); assay: ERα (Y537S mutant) competition binding assay; details: 3H-estradiol competition; Ki from IC50 by Cheng-Prusoff
# Experimental: Add the test compound at 10 different concentrations ranging from 10,000 nM to 0.5 nM, and determine nonspecific binding in the presence of 1 μM of 1713 estradiol. Incubate the binding reaction (140 μL) for 4 hours at room temperature, and then add cold dextran-charcoal buffer (70 μL) (containing per 50 mL of assay buffer, 0.75 g of charcoal and 0.25 g of dextran) to each reaction. Mix the plates for 8 minutes on an orbital shaker at 4° C. and then centrifuge at 3000 rpm at 4° C. for 10 minutes. Transfer an aliquot (120 μL) of the mixture to another 96-well, white flat bottom plate (Costar) and add Perkin Elmer Optiphase Supermix scintillation fluid (175 μL) to each well. Seal the plates and shake vigorously on an orbital shaker. After an incubation of 2.5 hours, read the plates in a Wallac Microbeta counter. […] Convert the IC50 values for the compound to Ki using Cheng-Prusoff equation.
# ERα [1] = target: T1, ERα (Homo sapiens (Human), UniProt P03372); assay: ERα degradation assay in MCF7 cells; format: cell-based; details: 24 hours, % ER positive cells, read-out: Relative IC50
# Experimental: The purpose of the following ERα degradation assay is to measure the degradation of ERα by a test compound in an ERα positive breast cancer cell line such as MCF7.
# Culture MCF7 (purchased from ATCC HTB-22) cells in DMEM media supplemented with 10% FBS, 0.01 mg/mL human insulin 1 and 1% penicillin/streptomycin antibiotics and plate in 384-well flat-bottom plates at a density of 4,000 cells per well in phenol red free DMEM media (20 μL) containing 10% charcoal stripped FBS. Incubate the cells overnight in a cell culture incubator (5% CO2, 95% relative humidity and 37° C.) and allow the cells to attach to the plate. The following day dose the cells with the test compound. Use an Echo 555 acoustic dispenser to prepare test compound serial dilutions (1:3) in a range from 6 μM to 0.0003 μM. Dose the cells with the addition of 5 μL from the serial dilution plate to the cell plate producing a final DMSO concentration of 0.2% with a final test compound concentration dose range between 2 and 0.0001 μM. For the maximum point, use media containing 0.2% of DMSO and for the minimum point, use fulvestrant diluted at 2 μM final concentrations in the growth media containing 0.2% DMSO. After dosing with the test compound, incubate the cell plates at 37° C. and 5% CO2 for 24 hours. Fix the cells by adding 14% para-formaldehyde (10 μL) for 30 minutes at room temperature. Wash the cells once with PBS (20 μL) and incubate with PBS (20 μL) containing 0.5% (v/v) TWEEN® 20 for 1 hour. Wash the cells with PBS containing 0.05% TWEEN® 20 (2×) and block with 3% BSA in PBS containing 0.05% TWEEN® 20 and 0.1% TRITON™ X-100 (20 μL/well) for 1 hour at room temperature. Add 1:500 Primary antibody (20 μL) (ERα (Clone SP1) monoclonal rabbit antibody # RM-9101-S, Thermo Scientific) dilution in 1% BSA in PBS containing 0.05% TWEEN® 20 per well, seal the plates and incubate overnight at 4° C. The following day wash the cells with PBS containing 0.05% TWEEN® 20 (2×) and incubate with secondary antibody (20 μL/well) (1:1000 dilution, Goat anti-rabbit IgM ALEXA FLUOR™ 488) in PBS 1% BSA for 105 minutes at room temperature. […] Seal the plates and incubate 1 hour at room temperature on the bench (preserved from light). Scan the plates with ACUMEN EXPLORER™ [Laser-scanning fluorescence microplate cytometer manufactured by TTP LABTECH LTD] to measure ERα. Image analysis is based on cellular fluorescent signals for identifying positive cells. Identify ER positive cells by mean intensity. Use total intensity at 575-640 nm from propidium iodide/DNA to identify individual cells. Assay output is % ER positive cells. Determine the IC50 by curve fitting to a four parameter logistic for each output using GENE DATA™.
# ERα [2] = target: T1, ERα; assay: PRα inhibition (ERα functional antagonism) cell assay in MCF7 cells; format: cell-based; details: MCF7 cells pretreated with 0.47 nM estradiol, % PRα positive cells; read-out: Relative IC50
# Source text: The purpose of the following PRα inhibition (ERα functional antagonism) cell assay is to determine the antagonistic activity of a test compound against the ERα receptor. An antagonist in this assay is expected to block the function of the ERα receptor.
# Carry out the assay conditions as detailed in the ERα degradation Cell base Acumen assay above, using the MCF7 cell line except that, prior to test compound dispensing, remove the media from the cell plate and pretreat all wells except for the negative control wells (column 24 of the plate) with assay media containing 0.47 nM estradiol for 30 minutes. In this assay, carry out immunostaining for the detection of PRα and scan the plates with ACUMEN EXPLORER™ [Laser-scanning fluorescence microplate cytometer manufactured by TTP LABTECH LTD] to measure PRα. Image analysis is based on cellular fluorescent signals for identifying positive cells. Identify PRα positive cells by mean intensity. Use total intensity at 575-640 from propidium iodide/DNA to identify individual cells. Assay output is % PRα positive cells. Determine the IC50 by curve fitting to a four parameter logistic for each output using GENE DATA™.
# [3] = system: MCF7 ESR1 Y537N mutant cells; assay: Cell proliferation assay in MCF7-ESR1 Y537N-682; format: cell-based, human; details: seven days; read-out: Relative IC50 (μM) MCF7 ESR1 Y537N mutant cells
# Experimental: Seed MCF7 (purchased from ATCC HTB-22) cells at a density of 2,000 cells per well in DMEM phenol red free media 10% FBS (20 μL volume) (charcoal stripped) into a clear bottom 384-well cell culture plate. Plate MCF7-ESRY537N-682 (generated by CRISPR/Cas9 gene editing of ESr1 gene in MCF7 cells, clone #682) in DMEM media supplemented with 10% FBS, and 1% penicillin/streptomycin antibiotics at a density of 1000 cells per well. Incubate the plates at 37° C. and 5% CO2. The following day dose the cells with the test compound. Use an Echo 555 acoustic dispenser to prepare test compound serial dilutions (1:3) in a range from 60 μM to 0.003 μM. Dose the cells with the addition of 5 μL from the serial dilution plate to the cell plate, producing a final DMSO concentration of 0.2% with a final test compound concentration dose range between 20 and 0.001 μM. For the maximum point use media containing 0.2% of DMSO and for the minimum point use fulvestrant diluted at 2 μM final concentrations in the growth media containing 0.2% DMSO. After dosing with the test compound, incubate the cell plates at 37° C. and 5% CO2. Seven days after test compound addition, remove the plates from the incubator and add cold EtOH 96% (65 μL) to each well. […] Seal the plates and incubate 1 hour at room temperature on the bench (preserved from light). Scan the plates with ACUMEN EXPLORER™ [Laser-scanning fluorescence microplate cytometer manufactured by TTP LABTECH LTD].
# Chain of ERα (Y537S mutant) (P03372 whole entry Y537S): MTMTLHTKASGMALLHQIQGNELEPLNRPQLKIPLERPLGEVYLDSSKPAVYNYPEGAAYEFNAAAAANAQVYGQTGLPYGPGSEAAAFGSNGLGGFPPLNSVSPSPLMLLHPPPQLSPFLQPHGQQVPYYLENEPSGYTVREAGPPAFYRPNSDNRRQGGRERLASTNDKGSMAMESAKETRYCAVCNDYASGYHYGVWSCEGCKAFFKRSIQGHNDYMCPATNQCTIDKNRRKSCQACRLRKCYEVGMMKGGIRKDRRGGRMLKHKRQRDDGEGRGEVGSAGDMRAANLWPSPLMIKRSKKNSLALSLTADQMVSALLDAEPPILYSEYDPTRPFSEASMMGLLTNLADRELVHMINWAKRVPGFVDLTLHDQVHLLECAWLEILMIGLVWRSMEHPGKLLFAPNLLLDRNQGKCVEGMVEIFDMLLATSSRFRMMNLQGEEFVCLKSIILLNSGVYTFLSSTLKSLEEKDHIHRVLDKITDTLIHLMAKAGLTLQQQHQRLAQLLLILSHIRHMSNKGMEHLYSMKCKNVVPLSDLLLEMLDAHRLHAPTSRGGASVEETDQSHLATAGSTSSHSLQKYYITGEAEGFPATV
# T1 sequence (P03372 whole entry): as the sequence (P03372 whole entry Y537S) above, with S537Y counted along it
structure (smiles),measurement,setting,value
"Oc1ccc2c3c(cnc2c1)-c1cccc(F)c1OC3c1ccc(OCCN2CC(CF)C2)cc1 (single isomer, unassigned) [Example 6B, 7-Fluoro-5-(4-{2-[3-(fluoromethyl)azetidin-1-yl]ethoxy}phenyl)-5H-[1]benzopyrano[4,3-c]quinolin-2-ol]",Ki,ERα (Y537S mutant),5.71 nM
same,DC50,ERα [1],9.13 nM
same,IC50,ERα [2],28.4 nM
same,IC50,[3],0.0154 µM
"Cc1cccc2c1OC(c1ccc(OCCN3CC(CF)C3)cc1)c1c-2cnc2cc(O)ccc12 (single isomer, unassigned) [Example 8A, 5-(4-{2-[3-(Fluoromethyl)azetidin-1-yl]ethoxy}phenyl)-7-methyl-5H-[1]benzopyrano[4,3-c]quinolin-2-ol]",Ki,ERα (Y537S mutant),66.9 nM
same,DC50,ERα [1],234 nM
same,IC50,ERα [2],206 nM
same,IC50,[3],0.662 ± 0.117 µM
"Cc1cccc2c1OC(c1ccc(OCCN3CC(CF)C3)cc1)c1c-2cnc2cc(O)ccc12 (single isomer, unassigned) [Example 8B, 5-(4-{2-[3-(Fluoromethyl)azetidin-1-yl]ethoxy}phenyl)-7-methyl-5H-[1]benzopyrano[4,3-c]quinolin-2-ol]",Ki,ERα (Y537S mutant),5.44 nM
same,DC50,ERα [1],9.62 ± 5.2 nM
same,IC50,ERα [2],48.5 ± 29.4 nM
same,IC50,[3],0.0142 ± 0.0111 µM
